A short description of series [1]: Formation of insoluble complex in presence or absence of ferric chloride. The class given is physicochemical. The settings on record: various amounts of diethanolamine. How it is done: To confirm this, the pH change of the solution and the percentage of beraprost sodium remaining in its supernatant when various amounts of diethanolamine (DEA) was added to the solution in the presence or absence of ferric chloride were examined.
Specifically, the pH of the solution was adjusted by adding diethanolamine to the aqueous solution of an iron ion of a specific concentration (455 mM) and beraprost sodium (32.5 mM) so that various pHs of the solution were obtained. The solution (suspension) was centrifuged at 16,500 g for 10 minutes, and the amount of beraprost sodium dissolved in the supernatant was determined by HPLC. The pH of the solution was also measured.
On the other hand, the pH of the solution was adjusted by adding diethanolamine to the aqueous solution of beraprost sodium (32.5 mM) in which hydrochloric acid was used instead of an iron ion of a specific concentration so that various pHs of the solution were obtained. The solution (suspension) was centrifuged at 16,500 g for 10 minutes, and the amount of beraprost sodium dissolved in the supernatant was determined by HPLC. The pH of the solution was also measured.

Series [2] is described as follows: Evaluation of drug retention in blood after intravenous administration. The settings on record: intravenous via tail vein, rats, n=3; FIG. 5. The class given is in vivo, male Wister rats. How it is done: Either beraprost sodium nanoparticles or beraprost sodium (comparative example) was administered to male Wister rats (5 week old, n=3) intravenously via a tail vein. After administration, a tail vein different from the administration site was cut with a scalpel at specified times, and blood samples were collected by using blood collection tubes (heparin-treated). A sample solution was prepared by adding 50 μL, of the blood to a microfuge tube containing 1,4-dioxane (150 μL). The sample solution was centrifuged (13,200 rpm, 4° C., and 10 minutes), and then, beraprost sodium contained in the supernatant was determined by HPLC.

The next series concerns cAMP. In words: Continuous increase of plasma cAMP after intravenous administration (cAMP ELISA). Format: in vivo, male Wister rats. The conditions noted are these: intravenous via tail vein, rats, n=2; FIG. 6. How it is done: Prostacyclin leads to relaxation of vascular smooth muscle and exerts a dilation effect on a pulmonary vessel by activating adenyl cyclase via a prostacyclin receptor on the vascular smooth muscle and increasing the concentration of cAMP. Therefore, the present inventors investigated whether cAMP increased continuously when the beraprost sodium-containing nanoparticle of the present invention was administered. Either beraprost sodium-containing nanoparticles or beraprost sodium (comparative example) was administered to male Wister rats (5 week old, n=2) intravenously via a tail vein. After administration, a tail vein different from the administration site was cut with a scalpel at specified times, and blood samples were collected by using blood collection tubes. […] This blood plasma sample was diluted as appropriate and cAMP contained in the […] was determined by using a cAMP ELISA kit. The method of measurement followed the protocol made by Assay Designs Inc.
(In general: ELISA stands for enzyme-linked immunosorbent assay.)

Series [3] deals with pulmonary vascular resistance. The conditions noted are these: treatment for three months, clinical trials; cited from earlier work.
The conditions of series [4]: in vivo; cited from earlier work.
The conditions of series [5]: oral; cited from earlier work.
For series [6], the system named is primary pulmonary hypertension. The settings on record: primary pulmonary hypertension group treated with epoprostenol; previous studies; cited from earlier work.
For series [7] the following is noted: measure of chemical stability; cited from earlier work.

SMILES strings stand for the structures.

As for `CC#CCC(C)[C@H](O)/C=C/[C@@H]1[C@H]2c3cccc(CCCC(=O)[O-])c3O[C@H]2C[C@H]1O.[Na+]` (stereo partly drawn) [beraprost sodium], the “formation of insoluble complex” value in series [1] (in the absence of ferric chloride (hydrochloric acid instead), FIG. 3) is reported as “no insoluble complex was formed”; in series [1] (in the presence of ferric chloride, FIG. 2), “formation of an insoluble complex”. The “drug retention in the blood” value in series [2] is “little beraprost sodium existed in the blood as early as 3 hours after its administration”. Also, the “continuous increase of cAMP in the plasma” value with cAMP is on record as “no continuous increase of cAMP was observed”. For the same compound, the pulmonary vascular resistance entry in series [3] is “significantly decreased the pulmonary vascular resistance”. The biological half-life entry in series [4] is on record as “about 1.1 hours”. Further, the “half-life of the blood concentration” value in series [5] is 1.1 h.

For the compound `CCCCC[C@H](O)/C=C/[C@@H]1[C@H]2C/C(=C/CCCC(=O)O)O[C@H]2C[C@H]1O` [epoprostenol], the three-year survival rate result in series [6] was “about 70%”. The chemical half-life result in series [7] was “about 10 minutes”.

(Values after patent US9161986B2, “Nanoparticle containing prostaglandin I2 derivative” (LTT BIO-PHARMA CO., LTD., priority 2011, dated 2015).)
